Results published in PMC7615656 (European journal of pharmacology, 2010).

Legend:
[1] = biological target: recombinant rat α2β3γ2F77I receptors (Rattus norvegicus, UniProt P18508+P23576, F115I); test: Two-electrode voltage clamp of GABA-induced chloride currents in Xenopus oocytes; format: cell-based; settings: α2β3γ2F77I, ns = not significant
[2] = biological target: recombinant rat α3β3γ2F77I receptors (Rattus norvegicus, UniProt P18508+P20236, F115I); test: as above; format: cell-based; settings: α3β3γ2F77I, ns = not significant
[3] = biological target: recombinant rat α1β3γ2 receptors (Rattus norvegicus, UniProt P18508+P62813); test: as above; format: cell-based; settings: α1β3γ2; for efficacy (% GABA EC3): ns = not significant
[4] = biological target: recombinant rat α3β3γ2 receptors (Rattus norvegicus, UniProt P18508+P20236); test: as above; format: cell-based; settings: for efficacy (% GABA EC3): α3β3γ2, ns = not significant
Chain of recombinant rat α3β3γ2 receptors (P20236 29-493): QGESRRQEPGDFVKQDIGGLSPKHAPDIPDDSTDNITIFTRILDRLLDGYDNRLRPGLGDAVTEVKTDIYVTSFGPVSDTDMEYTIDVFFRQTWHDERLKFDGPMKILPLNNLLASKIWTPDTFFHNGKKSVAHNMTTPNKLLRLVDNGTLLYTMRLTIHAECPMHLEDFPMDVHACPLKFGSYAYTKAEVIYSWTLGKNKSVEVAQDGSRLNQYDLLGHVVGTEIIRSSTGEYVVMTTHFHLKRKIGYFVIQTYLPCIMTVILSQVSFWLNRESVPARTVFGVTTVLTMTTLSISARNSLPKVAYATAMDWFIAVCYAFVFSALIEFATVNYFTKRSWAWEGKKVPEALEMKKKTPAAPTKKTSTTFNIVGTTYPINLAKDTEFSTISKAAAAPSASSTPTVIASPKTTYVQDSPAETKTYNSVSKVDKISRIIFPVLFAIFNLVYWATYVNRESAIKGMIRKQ
Chain of recombinant rat α3β3γ2 receptors (P63079 26-473 partner): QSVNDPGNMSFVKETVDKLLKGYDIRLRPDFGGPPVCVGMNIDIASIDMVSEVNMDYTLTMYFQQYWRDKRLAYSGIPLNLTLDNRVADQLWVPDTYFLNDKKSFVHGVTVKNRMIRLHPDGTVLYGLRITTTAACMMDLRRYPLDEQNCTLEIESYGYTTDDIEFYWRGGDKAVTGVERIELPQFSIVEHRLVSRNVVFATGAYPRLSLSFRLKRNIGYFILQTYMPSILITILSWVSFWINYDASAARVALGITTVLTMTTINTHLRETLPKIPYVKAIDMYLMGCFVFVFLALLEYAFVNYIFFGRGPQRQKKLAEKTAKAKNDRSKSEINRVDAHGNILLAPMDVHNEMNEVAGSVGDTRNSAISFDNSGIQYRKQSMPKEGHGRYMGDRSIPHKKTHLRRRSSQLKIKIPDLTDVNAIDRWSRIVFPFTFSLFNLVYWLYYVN
Chain of recombinant rat α3β3γ2 receptors (P18508 39-466): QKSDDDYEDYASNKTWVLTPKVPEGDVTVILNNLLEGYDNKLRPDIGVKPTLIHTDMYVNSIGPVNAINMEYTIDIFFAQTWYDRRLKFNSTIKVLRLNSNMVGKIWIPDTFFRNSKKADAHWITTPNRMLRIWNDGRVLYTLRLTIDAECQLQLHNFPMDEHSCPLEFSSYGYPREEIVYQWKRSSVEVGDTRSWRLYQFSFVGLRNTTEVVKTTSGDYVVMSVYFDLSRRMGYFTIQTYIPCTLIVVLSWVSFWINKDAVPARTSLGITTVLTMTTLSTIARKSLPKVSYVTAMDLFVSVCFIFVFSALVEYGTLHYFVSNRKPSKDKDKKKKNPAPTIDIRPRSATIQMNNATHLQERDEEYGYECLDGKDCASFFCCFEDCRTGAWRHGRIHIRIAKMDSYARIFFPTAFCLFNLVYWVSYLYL

[5] = biological target: recombinant rat α2β3γ2 receptors (Rattus norvegicus, UniProt P18508+P23576); test: as above; format: cell-based; settings: for efficacy (% GABA EC3): α2β3γ2, ns = not significant
[6] = test system: GABAA receptors containing the γ2F77I mutation; test: Modulation of GABA EC3 in receptors containing the γ2F77I mutation; format: cell-based, rat
[7] = biological target: recombinant rat α5β3γ2 receptors (Rattus norvegicus, UniProt P18508+P19969); test: Two-electrode voltage clamp of GABA-induced chloride currents in Xenopus oocytes; format: cell-based; settings: α5β3γ2; for efficacy (% GABA EC3): ns = not significant
Chain of recombinant rat α5β3γ2 receptors (P19969 32-464 limits assumed): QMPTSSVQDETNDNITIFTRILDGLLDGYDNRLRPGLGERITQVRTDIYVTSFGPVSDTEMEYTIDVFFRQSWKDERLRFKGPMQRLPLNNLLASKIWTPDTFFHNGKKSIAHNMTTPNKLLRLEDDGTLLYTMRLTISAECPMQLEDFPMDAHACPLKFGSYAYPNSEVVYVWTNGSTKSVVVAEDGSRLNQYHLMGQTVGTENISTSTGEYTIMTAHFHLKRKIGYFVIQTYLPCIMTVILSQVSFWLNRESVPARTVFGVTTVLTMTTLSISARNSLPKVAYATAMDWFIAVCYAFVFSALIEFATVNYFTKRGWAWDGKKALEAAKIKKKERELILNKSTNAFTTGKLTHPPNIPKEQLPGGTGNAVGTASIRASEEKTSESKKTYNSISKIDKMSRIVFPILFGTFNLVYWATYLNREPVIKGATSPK
Chain of recombinant rat α5β3γ2 receptors (P63079 26-473 partner): as the sequence (P63079 26-473 partner) above
Chain of recombinant rat α5β3γ2 receptors (P18508 39-466): as the sequence (P18508 39-466) above

[8] = biological target: recombinant rat α5β3γ2F77I receptors (Rattus norvegicus, UniProt P18508+P19969, F115I); test: as above; format: cell-based; settings: α5β3γ2F77I, ns = not significant
Chain of recombinant rat α5β3γ2F77I receptors (P19969 32-464 limits assumed): as the sequence (P19969 32-464 limits assumed) above
Chain of recombinant rat α5β3γ2F77I receptors (P63079 26-473 partner): as the sequence (P63079 26-473 partner) above
Chain of recombinant rat α5β3γ2F77I receptors (P18508 39-466 F115I): as the sequence (P18508 39-466) above, with F77I counted along it

[9] = biological target: recombinant rat α4β3γ2 receptors (Rattus norvegicus, UniProt P18508+P28471); test: as above; format: cell-based; settings: for efficacy (% GABA EC3): α4β3γ2, ns = not significant
[10] = test system: GABAA receptors of mice containing the point mutation γ2F77I; settings: receptor binding; ref Ogris et al., 2004; cited from earlier work
[11] = biological target: recombinant rat α1β3γ2F77I receptors (Rattus norvegicus, UniProt P18508+P62813, F115I); test: Two-electrode voltage clamp of GABA-induced chloride currents in Xenopus oocytes; format: cell-based; settings: α1β3γ2F77I, ns = not significant
[12] = biological target: recombinant rat α6β3γ2 receptors (Rattus norvegicus, UniProt P18508+P30191); test: as above; format: cell-based; settings: α6β3γ2, ns = not significant
[13] = biological target: recombinant rat α4β3γ2F77I receptors (Rattus norvegicus, UniProt P18508+P28471, F115I); test: as above; format: cell-based; settings: ns = not significant
[14] = biological target: recombinant rat α6β3γ2F77I receptors (Rattus norvegicus, UniProt P18508+P30191, F115I); test: as above; format: cell-based; settings: ns = not significant

SMILES: Cc1nnc2ccc(-c3cccc(C(F)(F)F)c3)nn12 [CL 218872, 3-methyl-6-[3-trifluoromethyl-phenyl]-1,2,4-triazolo[4,3-b]pyridazine]
- efficacy (% GABA EC3) ([1]; 100 nM): ns
- efficacy (% GABA EC3) ([1]; 1 μM): ns
- efficacy (% GABA EC3) ([1]; 10 μM): ns
- efficacy (% GABA EC3) ([2]; 100 nM): ns
- efficacy (% GABA EC3) ([2]; 1 μM): ns
- efficacy (% GABA EC3) ([2]; 10 μM): 125 ± 3 % GABA EC3
- efficacy (% GABA EC3) ([3]; 100 nM): 119 ± 7 % GABA EC3
- efficacy (% GABA EC3) ([3]; 1 μM): 172 ± 10 % GABA EC3
- efficacy (% GABA EC3) ([3]; 10 μM): 214 ± 13 % GABA EC3
- efficacy (% GABA EC3) ([4]; 100 nM): 114 ± 2 % GABA EC3
- efficacy (% GABA EC3) ([4]; 1 μM): 138 ± 7 % GABA EC3
- efficacy (% GABA EC3) ([4]; 10 μM): 195 ± 8 % GABA EC3
- fold reduced potency for enhancing GABA EC3 ([4]; α3β3γ2 versus α1β3γ2): approximately 3 fold
- efficacy (% GABA EC3) ([5]; 100 nM): ns
- efficacy (% GABA EC3) ([5]; 1 μM): ns
- efficacy (% GABA EC3) ([5]; 10 μM): 162 ± 3 % GABA EC3
- further fold reduction of potency for enhancing GABA current ([5]; α2β3γ2 versus α3β3γ2): approximately 3 fold
- stimulation of GABA-induced chloride flux ([6]; 10 μM, some γ2F77I receptors): 20–40%
- efficacy (% GABA EC3) ([7]; 100 nM): ns
- efficacy (% GABA EC3) ([7]; 1 μM): 114 ± 1 % GABA EC3
- efficacy (% GABA EC3) ([7]; 10 μM): 128 ± 2 % GABA EC3
- efficacy (% GABA EC3) ([8]; 100 nM): ns
- efficacy (% GABA EC3) ([8]; 1 μM): ns
- efficacy (% GABA EC3) ([8]; 10 μM): 120 ± 3 % GABA EC3
- efficacy (% GABA EC3) ([9]; 100 nM): ns
- efficacy (% GABA EC3) ([9]; 1 μM): ns
- efficacy (% GABA EC3) ([9]; 1 μM, listed as Cl218872): no effect
- efficacy (% GABA EC3) ([9]; 10 μM): 199 ± 27 % GABA EC3
- shift in affinity caused by γ2F77I [10]: ~900 fold
- efficacy (% GABA EC3) ([11]; 100 nM): ns
- efficacy (% GABA EC3) ([11]; 1 μM): ns
- efficacy (% GABA EC3) ([11]; 10 μM): 132 ± 4 % GABA EC3
- efficacy (% GABA EC3) ([12]; 100 nM): ns
- efficacy (% GABA EC3) ([12]; 1 μM): ns
- efficacy (% GABA EC3) ([12]; 10 μM): ns
- efficacy (% GABA EC3) ([12]; 10 μM, listed as Cl218872): no significant stimulation

SMILES: CCOC(=O)c1ncn2c1CN(C)C(=O)c1cc(F)ccc1-2 [Ro15–1788, ethyl-8-fluoro-5,6-dihydro-5-methyl-6-oxo-4H-imidazo[1,5-a][1,4]benzodiazepine-3-carboxylate]
- efficacy (% GABA EC3) ([1]; 10 nM): ns
- efficacy (% GABA EC3) ([1]; 100 nM): ns
- efficacy (% GABA EC3) ([1]; 1 μM): ns
- efficacy (% GABA EC3) ([1]; 10 μM): ns
- efficacy (% GABA EC3) ([2]; 10 nM): ns
- efficacy (% GABA EC3) ([2]; 100 nM): 106 ± 1 % GABA EC3
- efficacy (% GABA EC3) ([2]; 1 μM): 118 ± 2 % GABA EC3
- efficacy (% GABA EC3) ([2]; 10 μM): 139 ± 4 % GABA EC3
- efficacy (% GABA EC3) ([13]; 10 nM): ns
- efficacy (% GABA EC3) ([13]; 100 nM): ns
- efficacy (% GABA EC3) ([13]; 1 μM): ns
- efficacy (% GABA EC3) ([13]; 10 μM): ns
- efficacy (% GABA EC3) ([3]; 10 nM): ns
- efficacy (% GABA EC3) ([3]; 100 nM): ns
- efficacy (% GABA EC3) ([3]; 1 μM): ns
- efficacy (% GABA EC3) ([3]; 10 μM): ns
- maximal effect on GABA-induced chloride flux (GABA EC3), % of control current ([3]; control current = 100%): no significant effects
- efficacy (% GABA EC3) ([4]; 10 nM): 128 ± 4 % GABA EC3
- efficacy (% GABA EC3) ([4]; 100 nM): 148 ± 7 % GABA EC3
- efficacy (% GABA EC3) ([4]; 1 μM): 156 ± 8 % GABA EC3
- efficacy (% GABA EC3) ([4]; 10 μM): 157 ± 8 % GABA EC3
- efficacy (% GABA EC3) ([14]; 10 nM): ns
- efficacy (% GABA EC3) ([14]; 100 nM): ns
- efficacy (% GABA EC3) ([14]; 1 μM): ns
- efficacy (% GABA EC3) ([14]; 10 μM): ns
- efficacy (% GABA EC3) ([5]; 10 nM): 121 ± 2 % GABA EC3
- efficacy (% GABA EC3) ([5]; 100 nM): 128 ± 4 % GABA EC3
- efficacy (% GABA EC3) ([5]; 1 μM): 130 ± 5 % GABA EC3
- efficacy (% GABA EC3) ([5]; 10 μM): 133 ± 7 % GABA EC3
- activity in the mutated receptors ([6]; up to 100 nM): inactive
- efficacy (% GABA EC3) ([7]; 10 nM): ns
- efficacy (% GABA EC3) ([7]; 100 nM): ns
- efficacy (% GABA EC3) ([7]; 1 μM): ns
- efficacy (% GABA EC3) ([7]; 10 μM): ns
- maximal effect on GABA-induced chloride flux (GABA EC3), % of control current ([7]; control current = 100%): no significant effects
- efficacy (% GABA EC3) ([8]; 10 nM): ns
- efficacy (% GABA EC3) ([8]; 100 nM): ns
- efficacy (% GABA EC3) ([8]; 1 μM): ns
- efficacy (% GABA EC3) ([8]; 10 μM): ns
- EC50 [9]: > 232 nM
- efficacy (% GABA EC3) ([9]; 10 nM): ns
- efficacy (% GABA EC3) ([9]; 100 nM): 132 ± 8 % GABA EC3
- efficacy (% GABA EC3) ([9]; 1 μM): 162 ± 19 % GABA EC3
- efficacy (% GABA EC3) ([9]; 10 μM): 181 ± 10 % GABA EC3
- efficacy (% GABA EC3) ([11]; 10 nM): ns
- efficacy (% GABA EC3) ([11]; 100 nM): ns
- efficacy (% GABA EC3) ([11]; 1 μM): ns
- efficacy (% GABA EC3) ([11]; 10 μM): ns
- efficacy (% GABA EC3) ([12]; 10 nM): ns
- efficacy (% GABA EC3) ([12]; 100 nM): 128 ± 18 % GABA EC3
- efficacy (% GABA EC3) ([12]; 1 μM): 166 ± 9 % GABA EC3
- efficacy (% GABA EC3) ([12]; 10 μM): 179 ± 6 % GABA EC3
